What all share (assay): biochemical
Common to all, as to set-up: DiscoveRx KINOMEscan active site-directed competition binding; percent of control kinase bound to immobilised ligand

One experiment addresses EPHA7 (Homo sapiens, UniProt Q15375).
In experiment [1] the target is T1, JAK1(JH1domain-catalytic) (Homo sapiens, UniProt P23458).
T1 construct: JH1domain-catalytic

Experiment [2] concerns the target EGFR(L747-E749del, A750P) (Homo sapiens, UniProt P00533, A750P/DEL747-749).
For the next experiment, the target named is T2, EPHA8 (Homo sapiens, UniProt P29322).
T2 sequence (P29322 1-1005): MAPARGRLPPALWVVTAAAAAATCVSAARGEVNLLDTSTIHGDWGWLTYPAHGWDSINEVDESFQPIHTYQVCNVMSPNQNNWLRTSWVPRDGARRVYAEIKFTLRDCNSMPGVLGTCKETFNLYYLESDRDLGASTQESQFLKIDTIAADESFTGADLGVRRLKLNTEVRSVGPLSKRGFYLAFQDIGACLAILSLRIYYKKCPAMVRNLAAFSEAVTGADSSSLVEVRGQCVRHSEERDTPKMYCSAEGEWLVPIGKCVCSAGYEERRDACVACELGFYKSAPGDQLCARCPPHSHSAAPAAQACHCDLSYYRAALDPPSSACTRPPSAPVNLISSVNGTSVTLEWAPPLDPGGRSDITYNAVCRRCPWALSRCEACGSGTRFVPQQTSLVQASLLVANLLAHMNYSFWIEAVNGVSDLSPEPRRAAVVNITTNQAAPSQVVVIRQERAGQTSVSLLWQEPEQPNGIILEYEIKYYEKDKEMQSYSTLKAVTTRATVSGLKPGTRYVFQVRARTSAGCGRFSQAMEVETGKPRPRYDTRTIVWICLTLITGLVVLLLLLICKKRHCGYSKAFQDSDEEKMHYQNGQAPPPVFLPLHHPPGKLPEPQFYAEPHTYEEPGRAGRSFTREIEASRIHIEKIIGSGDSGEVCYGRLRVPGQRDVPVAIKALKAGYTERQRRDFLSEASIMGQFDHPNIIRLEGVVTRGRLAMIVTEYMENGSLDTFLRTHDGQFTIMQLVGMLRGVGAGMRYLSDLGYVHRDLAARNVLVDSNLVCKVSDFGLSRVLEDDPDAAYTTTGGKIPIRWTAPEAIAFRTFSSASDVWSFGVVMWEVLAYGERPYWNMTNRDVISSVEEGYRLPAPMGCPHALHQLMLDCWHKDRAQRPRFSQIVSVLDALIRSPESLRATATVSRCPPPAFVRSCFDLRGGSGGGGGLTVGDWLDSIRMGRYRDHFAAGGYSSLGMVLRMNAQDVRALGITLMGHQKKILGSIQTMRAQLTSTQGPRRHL

Another experiment addresses T3, DMPK2 (Homo sapiens, UniProt Q6DT37).
T3 construct: gene CDC42BPG

The target of a further experiment is RET(V804M) (Homo sapiens, UniProt P07949, V804M).
The next experiment has as its target T4, EPHA6 (Homo sapiens, UniProt Q9UF33).
T4 sequence (Q9UF33 1-1036): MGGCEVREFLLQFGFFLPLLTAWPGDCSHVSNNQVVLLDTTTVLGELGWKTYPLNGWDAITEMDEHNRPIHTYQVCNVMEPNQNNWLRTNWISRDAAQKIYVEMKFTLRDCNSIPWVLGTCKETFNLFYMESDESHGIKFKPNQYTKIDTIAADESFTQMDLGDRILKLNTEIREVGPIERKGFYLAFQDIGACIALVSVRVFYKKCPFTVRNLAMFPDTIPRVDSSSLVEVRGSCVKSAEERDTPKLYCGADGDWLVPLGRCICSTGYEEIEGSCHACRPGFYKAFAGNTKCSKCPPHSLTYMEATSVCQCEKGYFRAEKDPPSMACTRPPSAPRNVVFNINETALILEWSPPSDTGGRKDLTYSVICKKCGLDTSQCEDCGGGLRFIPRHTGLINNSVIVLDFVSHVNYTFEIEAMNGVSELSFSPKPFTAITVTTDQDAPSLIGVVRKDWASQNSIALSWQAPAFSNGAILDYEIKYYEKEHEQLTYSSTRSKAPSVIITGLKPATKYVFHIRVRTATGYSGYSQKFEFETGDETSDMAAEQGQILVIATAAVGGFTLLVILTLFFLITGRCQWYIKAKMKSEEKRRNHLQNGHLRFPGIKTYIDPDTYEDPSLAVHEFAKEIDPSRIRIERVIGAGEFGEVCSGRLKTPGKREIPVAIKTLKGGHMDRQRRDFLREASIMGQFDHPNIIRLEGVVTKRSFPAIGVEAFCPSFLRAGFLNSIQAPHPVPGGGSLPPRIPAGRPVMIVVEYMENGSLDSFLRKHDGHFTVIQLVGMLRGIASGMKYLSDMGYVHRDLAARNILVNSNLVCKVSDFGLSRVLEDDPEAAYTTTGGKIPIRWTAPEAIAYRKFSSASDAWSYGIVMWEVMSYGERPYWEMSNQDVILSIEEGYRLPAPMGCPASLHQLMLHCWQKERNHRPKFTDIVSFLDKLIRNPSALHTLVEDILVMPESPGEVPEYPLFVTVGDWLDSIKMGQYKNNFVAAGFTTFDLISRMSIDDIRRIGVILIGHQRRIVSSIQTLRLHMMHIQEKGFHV

Setting [3] is: read-out: Rucaparib / %Ctrl @ 10000nM, binding competition, % of control.
The mark [4] stands for this setting: read-out: Talazoparib (BMN 673) / %Ctrl @ 10000nM.
Setting [5] is: read-out: Niraparib (MK-4827) / %Ctrl @ 10000nM.
Setting [6] is: read-out: Olaparib / %Ctrl @ 10000nM.

Like-named read-outs stand apart in the source and are kept apart here.

For four molecules, percent of control binding results are on record in article PMC7026418, “The kinase polypharmacology landscape of clinical PARP inhibitors” (Scientific Reports, 2020).

T1 sequence (P23458 whole entry): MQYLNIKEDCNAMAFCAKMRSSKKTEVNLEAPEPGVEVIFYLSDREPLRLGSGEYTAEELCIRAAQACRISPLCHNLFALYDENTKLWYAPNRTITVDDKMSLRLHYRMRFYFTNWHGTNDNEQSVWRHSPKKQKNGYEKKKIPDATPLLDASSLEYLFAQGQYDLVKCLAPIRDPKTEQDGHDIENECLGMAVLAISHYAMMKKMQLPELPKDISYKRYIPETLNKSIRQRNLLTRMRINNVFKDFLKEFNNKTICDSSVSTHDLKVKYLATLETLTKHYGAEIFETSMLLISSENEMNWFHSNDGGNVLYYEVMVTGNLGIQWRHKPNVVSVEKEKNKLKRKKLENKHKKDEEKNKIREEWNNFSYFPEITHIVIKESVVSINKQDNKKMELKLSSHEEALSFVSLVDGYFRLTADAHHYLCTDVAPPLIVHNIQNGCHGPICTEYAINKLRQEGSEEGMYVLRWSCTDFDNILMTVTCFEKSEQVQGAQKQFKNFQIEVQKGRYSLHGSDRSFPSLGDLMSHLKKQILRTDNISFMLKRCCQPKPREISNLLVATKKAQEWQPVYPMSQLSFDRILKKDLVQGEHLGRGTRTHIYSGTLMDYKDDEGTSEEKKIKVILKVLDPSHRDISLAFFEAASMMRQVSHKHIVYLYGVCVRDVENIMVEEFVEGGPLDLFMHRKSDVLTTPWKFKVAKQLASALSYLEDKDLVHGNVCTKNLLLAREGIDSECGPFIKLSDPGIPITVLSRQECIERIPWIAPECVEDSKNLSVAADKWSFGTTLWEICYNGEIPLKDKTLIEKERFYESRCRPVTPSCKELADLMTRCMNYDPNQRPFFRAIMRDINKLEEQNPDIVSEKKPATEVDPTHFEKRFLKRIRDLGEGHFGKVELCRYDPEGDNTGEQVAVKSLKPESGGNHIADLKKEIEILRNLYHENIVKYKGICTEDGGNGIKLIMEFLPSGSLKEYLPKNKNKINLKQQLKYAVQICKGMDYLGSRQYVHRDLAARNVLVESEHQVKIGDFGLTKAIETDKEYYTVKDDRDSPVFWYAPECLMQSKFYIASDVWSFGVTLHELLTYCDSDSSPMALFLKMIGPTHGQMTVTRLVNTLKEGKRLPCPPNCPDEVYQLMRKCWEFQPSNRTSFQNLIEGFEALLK
Sequence of EPHA7 (Q15375 whole entry): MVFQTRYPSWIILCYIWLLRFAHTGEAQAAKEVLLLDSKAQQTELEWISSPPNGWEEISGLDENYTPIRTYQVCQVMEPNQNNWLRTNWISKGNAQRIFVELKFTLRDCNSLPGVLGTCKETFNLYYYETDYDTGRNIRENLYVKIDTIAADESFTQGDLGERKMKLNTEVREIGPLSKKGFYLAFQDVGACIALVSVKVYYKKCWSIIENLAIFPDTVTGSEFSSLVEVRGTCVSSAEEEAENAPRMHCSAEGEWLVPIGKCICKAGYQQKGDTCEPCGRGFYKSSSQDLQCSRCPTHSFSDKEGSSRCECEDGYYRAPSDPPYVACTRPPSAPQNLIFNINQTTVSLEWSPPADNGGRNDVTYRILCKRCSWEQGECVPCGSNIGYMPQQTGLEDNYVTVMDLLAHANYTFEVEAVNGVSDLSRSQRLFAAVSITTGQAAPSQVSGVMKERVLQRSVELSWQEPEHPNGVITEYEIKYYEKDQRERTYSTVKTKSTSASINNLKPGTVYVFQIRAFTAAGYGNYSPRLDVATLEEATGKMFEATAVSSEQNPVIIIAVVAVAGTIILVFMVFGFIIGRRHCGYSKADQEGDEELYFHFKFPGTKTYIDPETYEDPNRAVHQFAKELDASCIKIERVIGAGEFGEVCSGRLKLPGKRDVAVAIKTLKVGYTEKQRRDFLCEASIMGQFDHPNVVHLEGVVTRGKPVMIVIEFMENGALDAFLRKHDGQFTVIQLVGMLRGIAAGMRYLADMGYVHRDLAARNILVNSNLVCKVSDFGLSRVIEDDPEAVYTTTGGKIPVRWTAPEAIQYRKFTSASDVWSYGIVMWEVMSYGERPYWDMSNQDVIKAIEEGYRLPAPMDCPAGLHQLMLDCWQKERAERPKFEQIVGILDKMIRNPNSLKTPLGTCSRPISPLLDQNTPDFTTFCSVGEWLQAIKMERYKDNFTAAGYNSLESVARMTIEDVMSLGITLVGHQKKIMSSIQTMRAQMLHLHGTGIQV
T3 sequence (Q6DT37 whole entry): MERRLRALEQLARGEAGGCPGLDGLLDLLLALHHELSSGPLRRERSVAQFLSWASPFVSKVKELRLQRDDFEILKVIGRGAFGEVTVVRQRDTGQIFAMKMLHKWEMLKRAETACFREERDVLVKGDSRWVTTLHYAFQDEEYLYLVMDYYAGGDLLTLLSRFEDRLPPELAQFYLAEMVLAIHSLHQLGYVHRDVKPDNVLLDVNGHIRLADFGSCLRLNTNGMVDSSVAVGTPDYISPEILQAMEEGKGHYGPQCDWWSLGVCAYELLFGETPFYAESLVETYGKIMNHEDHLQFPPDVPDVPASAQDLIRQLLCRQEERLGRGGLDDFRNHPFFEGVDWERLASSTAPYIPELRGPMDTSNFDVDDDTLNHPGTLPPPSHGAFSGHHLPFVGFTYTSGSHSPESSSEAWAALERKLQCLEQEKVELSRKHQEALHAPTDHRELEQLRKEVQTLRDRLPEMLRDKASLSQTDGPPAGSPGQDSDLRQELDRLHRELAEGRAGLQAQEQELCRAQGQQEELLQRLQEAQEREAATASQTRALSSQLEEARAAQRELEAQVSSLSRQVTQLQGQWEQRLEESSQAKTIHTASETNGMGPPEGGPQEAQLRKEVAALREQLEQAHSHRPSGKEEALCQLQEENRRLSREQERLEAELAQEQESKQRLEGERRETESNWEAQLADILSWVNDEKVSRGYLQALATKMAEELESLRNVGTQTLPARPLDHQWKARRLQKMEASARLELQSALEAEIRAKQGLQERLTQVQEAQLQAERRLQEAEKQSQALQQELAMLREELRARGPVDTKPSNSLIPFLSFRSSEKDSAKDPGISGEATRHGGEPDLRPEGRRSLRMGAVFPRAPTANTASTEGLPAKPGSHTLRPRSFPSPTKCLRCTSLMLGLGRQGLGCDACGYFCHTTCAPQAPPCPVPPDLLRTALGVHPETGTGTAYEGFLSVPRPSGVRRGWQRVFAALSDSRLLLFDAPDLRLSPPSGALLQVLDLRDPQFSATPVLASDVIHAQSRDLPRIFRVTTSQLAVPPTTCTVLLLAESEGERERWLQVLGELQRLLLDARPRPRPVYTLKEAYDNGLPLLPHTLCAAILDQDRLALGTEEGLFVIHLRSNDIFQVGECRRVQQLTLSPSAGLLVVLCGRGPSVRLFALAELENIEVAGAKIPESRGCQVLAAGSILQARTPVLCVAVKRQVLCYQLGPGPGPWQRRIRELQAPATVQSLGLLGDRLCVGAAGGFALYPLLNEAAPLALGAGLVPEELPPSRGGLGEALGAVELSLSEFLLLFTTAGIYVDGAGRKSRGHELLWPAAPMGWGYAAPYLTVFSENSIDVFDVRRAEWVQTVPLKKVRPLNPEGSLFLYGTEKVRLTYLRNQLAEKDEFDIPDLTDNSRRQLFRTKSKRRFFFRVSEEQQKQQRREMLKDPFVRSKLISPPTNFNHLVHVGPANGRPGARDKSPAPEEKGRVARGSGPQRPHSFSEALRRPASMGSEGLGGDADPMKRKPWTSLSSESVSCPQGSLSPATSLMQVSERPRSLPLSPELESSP
Sequence of EGFR(L747-E749del, A750P) (P00533 with tags, fused parts or gaps DEL747-749/A750P): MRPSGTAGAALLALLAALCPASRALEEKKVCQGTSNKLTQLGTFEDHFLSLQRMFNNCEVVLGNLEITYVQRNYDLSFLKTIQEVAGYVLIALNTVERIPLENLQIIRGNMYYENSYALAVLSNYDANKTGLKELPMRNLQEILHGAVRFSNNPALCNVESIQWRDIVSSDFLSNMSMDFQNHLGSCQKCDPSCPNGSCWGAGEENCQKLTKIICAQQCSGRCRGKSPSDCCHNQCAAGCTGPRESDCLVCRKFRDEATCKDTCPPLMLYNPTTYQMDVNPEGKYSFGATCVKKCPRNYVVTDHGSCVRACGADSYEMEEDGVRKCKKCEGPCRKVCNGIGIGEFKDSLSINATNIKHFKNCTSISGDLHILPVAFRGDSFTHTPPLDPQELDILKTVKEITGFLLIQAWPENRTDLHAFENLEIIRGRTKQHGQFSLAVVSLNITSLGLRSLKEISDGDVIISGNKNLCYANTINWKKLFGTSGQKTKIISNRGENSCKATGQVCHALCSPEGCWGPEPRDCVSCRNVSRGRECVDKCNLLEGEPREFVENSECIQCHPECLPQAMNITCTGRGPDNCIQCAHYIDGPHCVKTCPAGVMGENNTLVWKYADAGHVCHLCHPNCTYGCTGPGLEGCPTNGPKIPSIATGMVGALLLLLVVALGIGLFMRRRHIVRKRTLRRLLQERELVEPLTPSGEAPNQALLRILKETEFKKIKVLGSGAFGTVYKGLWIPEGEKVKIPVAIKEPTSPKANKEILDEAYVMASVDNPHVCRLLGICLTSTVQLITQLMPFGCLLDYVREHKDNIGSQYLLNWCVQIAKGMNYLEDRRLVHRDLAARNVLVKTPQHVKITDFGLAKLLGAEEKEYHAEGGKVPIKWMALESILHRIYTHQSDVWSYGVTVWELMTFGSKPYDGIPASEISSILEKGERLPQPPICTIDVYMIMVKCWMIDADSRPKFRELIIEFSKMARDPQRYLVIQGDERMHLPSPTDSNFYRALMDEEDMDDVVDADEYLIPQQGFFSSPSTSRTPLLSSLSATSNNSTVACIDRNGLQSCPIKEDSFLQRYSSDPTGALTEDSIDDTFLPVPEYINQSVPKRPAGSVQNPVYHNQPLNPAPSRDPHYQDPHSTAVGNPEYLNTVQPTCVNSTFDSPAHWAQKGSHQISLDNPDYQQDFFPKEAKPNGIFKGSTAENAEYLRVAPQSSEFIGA

For `CNCc1ccc(-c2[nH]c3cc(F)cc4c3c2CCNC4=O)cc1` [Rucaparib], the percent of control binding at 10 µM is 100% at EPHA7 (setting [3]); 100% in experiment [1] (setting [3]); 98% in experiment [2] (setting [3]); 100% at EPHA8 (setting [3]); 99% on DMPK2 (setting [3]); 99% on RET(V804M) (setting [3]). Also, the percent of control binding at 10 µM on EPHA6 (setting [3]) came out at 99%.
Regarding `Cn1ncnc1[C@H]1c2n[nH]c(=O)c3cc(F)cc(c23)N[C@@H]1c1ccc(F)cc1` [Talazoparib], the percent of control binding at 10 µM at EPHA7 (setting [4]) was 96%; in experiment [1] (setting [4]), 100%; in experiment [2] (setting [4]), 96%; at EPHA8 (setting [4]), 96%; on DMPK2 (setting [4]) it was 100%; on RET(V804M) (setting [4]) it was 97%. Besides, the percent of control binding at 10 µM at EPHA6 (setting [4]) turned out to be 100%.
Regarding `NC(=O)c1cccc2cn(-c3ccc([C@@H]4CCCNC4)cc3)nc12` [Niraparib], the percent of control binding at 10 µM on EPHA7 (setting [5]) was determined as 89%; in experiment [1] (setting [5]), 100%; in experiment [2] (setting [5]) it was 65%; on EPHA8 (setting [5]), 80%; at DMPK2 (setting [5]), 93%; on RET(V804M) (setting [5]), 79%. Besides, the percent of control binding at 10 µM at EPHA6 (setting [5]) turned out to be 89%.
`O=C(c1cc(Cc2n[nH]c(=O)c3ccccc23)ccc1F)N1CCN(C(=O)C2CC2)CC1` [Olaparib]: the percent of control binding at 10 µM at EPHA7 (setting [6]) was 100%; in experiment [1] (setting [6]), 81%; in experiment [2] (setting [6]) it was 82%; at EPHA8 (setting [6]), 98%; on DMPK2 (setting [6]), 100%; at RET(V804M) (setting [6]), 90%. In addition, the percent of control binding at 10 µM on EPHA6 (setting [6]) amounted to 94%.
